Experimental data from patent publication US10072025B2, “Ethyl N-boc piperidinyl pyrazolo pyridones as Janus kinase inhibitors” (Merck Sharp & Dohme Corp., priority 2014, dated 2018).
Like-named read-outs stand apart in the source and are kept apart here.

Columns and labels:
[1] = molecular target: JAK1 (Homo sapiens (Human), UniProt P23458); experiment: Jak Biochemical HTRF Assay (JAK1)
[2] = molecular target: JAK2 (Homo sapiens (Human), UniProt O60674); experiment: Jak Biochemical HTRF Assay (JAK2); details: recombinant purified GST-tagged catalytic domain, [ATP] 8.5 μM, [E] 0.052 nM
[3] = recombinant purified GST-tagged catalytic domain, HTRF, [ATP] 31.8 μM, [E] 1.405 nM

JAK1, sequence (P23458 875-1153): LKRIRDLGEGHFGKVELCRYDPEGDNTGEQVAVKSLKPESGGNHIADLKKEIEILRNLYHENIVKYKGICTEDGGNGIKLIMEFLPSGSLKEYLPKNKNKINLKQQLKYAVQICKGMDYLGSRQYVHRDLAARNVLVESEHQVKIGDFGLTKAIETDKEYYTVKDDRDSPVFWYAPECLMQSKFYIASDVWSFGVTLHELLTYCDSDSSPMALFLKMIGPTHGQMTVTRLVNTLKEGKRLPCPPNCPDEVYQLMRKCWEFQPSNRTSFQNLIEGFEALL
JAK2, sequence (O60674 849-1124): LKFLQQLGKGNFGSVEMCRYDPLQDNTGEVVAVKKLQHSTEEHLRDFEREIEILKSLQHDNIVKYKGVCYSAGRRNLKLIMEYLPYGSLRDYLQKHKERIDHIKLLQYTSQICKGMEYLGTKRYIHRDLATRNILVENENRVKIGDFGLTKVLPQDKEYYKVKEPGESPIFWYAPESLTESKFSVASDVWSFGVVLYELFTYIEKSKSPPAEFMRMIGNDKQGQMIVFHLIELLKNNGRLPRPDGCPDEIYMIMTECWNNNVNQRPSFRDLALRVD

IC50 [1, 3] [nM] | IC50 [2] [nM] | Structure (SMILES) | IC50 [1] [nM]
4.4 | 6.87 | CCC1(n2nc(Nc3ccc(C(C)(OC)C(F)(F)F)cc3)c3c(=O)[nH]ccc32)CCN(C(=O)OC(C)(C)C)CC1 (stereo not drawn) [Example 2-41] | 
0.84 | 0.93 | CCC1(n2nc(Nc3ccc(C(=O)N4CCSCC4)c(C)c3)c3c(=O)[nH]ccc32)CCN(C(=O)OC(C)(C)C)CC1 [Example 2-21, tert-butyl 4-ethyl-4-(3-(3-methyl-4-(thiomorpholine-4-carbonyl)phenylamino)-4-oxo-4,5-dihydropyrazolo[4,3-c]pyridin-1-yl) piperidine-1-carboxylate] | 

Structure (SMILES) | IC50 [1, 3] [nM] | IC50 [2] [nM] | IC50 [1] [nM]
CCC1(n2nc(Nc3ccc(C(=O)N4C[C@H]5C[C@@H](C4)O5)c(C)c3)c3c(=O)[nH]ccc32)CCN(C(=O)OC(C)(C)C)CC1 [Example 3-6, tert-butyl 4-ethyl-4-[3-({3-methyl-4-[(1R,5S)-6-oxa-3-azabicyclo[3.1.1]hept-3-ylcarbonyl]phenyl}amino)-4-oxo-4,5-dihydro-1H-pyrazolo[4,3-c]pyridin-1-yl]piperidine-1-carboxylate] |  | 0.43 | 0.3
